Test results: patent US20260124221A1, “INJECTABLE PHARMACEUTICAL COMPOSITION FOR TREATMENT OF BREAST CANCER” (KASHIV BIOSCIENCES, LLC, priority 2021, published 2026)

Key:
[1] = Pharmacokinetics after single intramuscular administration in female Beagle dogs (Example 19); type: in vivo; settings: 17 mg/kg IM, mean ± SD; for Cmax / Tmax / AUC(0-inf) / AUC(0-t): female, beagle, dog, plasma, im, 17 mg/kg; for AUC(0-inf): read-out: AUCinf—obs of Compound I in plasma; for AUC(0-t): read-out: AUClast of Compound I in plasma
Protocol: A total of 9 female Beagle dogs were used in this study. The study was performed as a parallel design study.
(§1) All dogs were administered intramuscularly at the gluteal region.
(§2) Dose volume was equally divided and administered to two IM sites.
(§3) At each time point, −0.5 mL of blood was withdrawn and transferred into a pre-labelled K2EDTA coated vacutainer tubes and mixed gently by inverting the tube to facilitate mixing of anticoagulant with the blood. Blood samples were kept on gel packs until centrifugation. The collected blood samples were centrifuged at 5000 rpm for 5 min at 4° C. Plasma was separated after centrifugation. All plasma samples were transferred into pre-labeled (Animal ID No., Time point, Study No., and Group) tubes and stored at −70±10° C. until analysis.
Bioanalysis in plasma samples was performed using fit-for-purpose LC-MS/MS method for the quantification of—Group 1—Fulvestrant • Group 2—Fulvestrant and Compound I • Group 3—Fulvestrant and Compound I
Linearity range for Fulvestrant and Compound I analytes were 1 to 1000 ng/mL. The bioanalytical summary for Fulvestrant concentration in all three groups is shown in table 4 and graphical representation is shown in FIG. 3 Concentration of pro-drug Compound I is shown in table 5 and graphical representation is shown in FIG. 4. The plasma pharmacokinetic parameters for Fulvestrant and Compound I were calculated using standard non-compartmental analysis (Phoenix® software, version 8.3, Pharsight Corporation, Mountain View, California 94040/USA) linear trapezoidal method with linear interpolation. Ratio of fulvestrant obtained after dosing Compound I to that of Faslodex was calculated for parameters Cmax and AUC is reported in Table 6(A) and Table 6(B).

[2] = Pharmacokinetic study in female Beagle dog, 169.5 mg/mL composition (Example 24); type: in vivo; settings: female Beagle dogs, Compound I 169.5 mg/mL, 17 mg/kg IM, two sites
Protocol: A total of 2 female beagle dogs were used in this study.
as §1, §2
as §3, with “pre-labeled” for “pre-labelled”
Bioanalysis of plasma samples was performed using fit-for-purpose LC-MS/MS method for the quantification of fulvestrant and Compound I.
Linearity range for Fulvestrant and Compound I analytes were 1 to 1000 ng/mL. The plasmapharmacokinetic parameters for Fulvestrant and Compound I were calculated using standard non-compartmental analysis (Phoenix® software, version 8.3, Pharsight Corporation, Mountain View, California 94040/USA) linear trapezoidal method with linear interpolation.

[3] = Pharmacokinetics after single intramuscular administration in female SD rats (Example 18); type: in vivo; settings: Sprague-Dawley, rat, plasma, im, 59 mg/kg, Compound I 100 mg/mL, mean ± SD; for AUC(0-t): read-out: AUClast of Compound I in plasma
Protocol: The objective of the study was to evaluate single site Vs. two site IM injection of compound I and it impact on pharmacokinetic exposure in female rats. Study was performed in female SD rats with n=6 animals per group. Faslodex 52 mg/kg (human equivalent dose) was administrated at two IM sites by dividing dose volume to half. In similar manner, 59 mg/kg (100 mg/mL compound I concentration) (52 mg/kg Fulvestrant equivalent) was administered as single injection (one IM site) or two IM injection by dividing dose volume in half. […] At each time point, −0.3 mL blood was collected in tubes containing Li-heparin as anti-coagulant. For plasma separation, blood was centrifuges at 5000 rpm for 10 minutes at 4° C. and collected plasma was stored at −80° C. until further analysis.
Bioanalysis in plasma samples was performed using fit-for-purpose LC-MS/MS method for the quantification Fulvestrant and Compound I. Linearity range for Fulvestrant and Compound I analytes were 2 to 2000 ng/mL. The bioanalytical summary for Fulvestrant concentration in all three groups is shown in table 1 and graphical representation is shown in FIG. 1 Concentration of Compound I is shown in table 2 and graphical representation is shown in FIG. 2. The plasma pharmacokinetic parameters for Fulvestrant and Compound I were calculated using standard non-compartmental analysis (Phoenix® software, version 8.1, Pharsight Corporation, Mountain View, California 94040/USA) linear trapezoidal method with linear interpolation.

[4] = Stability of Compound I in solubilised composition; type: physicochemical
Excerpt: Example 15: Stability of Compound I in Solubilised Composition
Example 16: Stability of Compound I in Solubilised Composition
Example 17: Stability of Compound I in Solubilised Composition

in vivo = settings: male, cynomolgus monkey, im, 28.3 mg/kg
Protocol: (§4) Procedure: In this single-dose pharmacokinetics study, four Non-Naïve male Cyno monkeys (Age—2.5-6 years, Weight 2-5 kg) were randomly assigned into two groups to evaluate the pharmacokinetics of Faslodex (1 animal) Vs. Compound I (3 animals) following single intramuscular (IM) administration. The test articles were monitored in plasma for up to 336 h (14 days) following dosing. Faslodex at dose of 25 mg/kg (50 mg/mL fulvestrant strength, 500 mg human equivalent dose) was intramuscularly administrated into monkey at study Day 0. The dosage volume 0.5 mL/kg was equally divided and administered at two sites. Compound I at dose 28.3 mg/kg (25 mg/kg Fulvestrant equivalent) having strength 169.5 mg/mL (150 mg/mL fulvestrant equivalent) was intramuscularly administrated into monkeys at study Day 0. The dosage volume of 0.15 mL/kg was administered on one IM site. Blood samples were collected through cephalic or saphenous vein at 0 (Pre-dose), 0.25, 1, 2, 4, 8, 12, 24, 48, 72, 96, 120, 144, 168, 192, 216, 240, 264, 288, 312, and 336 hours. Plasma concentrations of Compound I and fulvestrant were determined using LC/MS/MS to construct semi-logarithmic plasma concentration-time curves. Pharmacokinetic analysis was performed using non-compartmental model.

[5] = Pharmacokinetic study in male cynomolgus monkey (Example 25); settings: male cynomolgus monkeys; Compound I 28.3 mg/kg IM, 169.5 mg/mL, one site
Protocol: as §4

[6] = composition with 113 mg/ml compound I, Initial
[7] = composition with 113 mg/ml compound I, Room Temp (45 Days)
[8] = composition with 169.5 mg/ml compound I, Initial
[9] = composition with 169.5 mg/ml compound I, Room Temp (30 Days)
[10] = composition with 226 mg/ml compound I, Initial
[11] = composition with 226 mg/ml compound I, Room Temp (30 Days)

For `C[C@]12CC[C@@H]3c4ccc(OP(=O)(O)O)cc4C[C@@H](CCC[S+]([O-])CCCC(F)(F)C(F)(F)F)[C@H]3[C@@H]1CC[C@@H]2O` (stereo partly shown) [Compound I], the “AUC% exp. pol of Compound I” value ([1]; Compound I 50 mg/mL) was 0.967 ± 0.255%, the “AUC% exp. pol of Compound I” value ([1]; Compound I 100 mg/mL) was 0.974 ± 0.886% and the Cmax ([1]; Compound I 50 mg/mL) was 624 ± 274 ng/mL. For the same compound, the Tmax ([1]; Compound I 50 mg/mL) was 0.83 ± 1.01 h, the AUC(0-inf) ([1]; Compound I 50 mg/mL) was 4260 ± 1060 ng·h/mL and the AUC(0-t) ([1]; Compound I 50 mg/mL) was 4220 ± 1060 ng·h/mL. For the same compound, the Cmax ([1]; Compound I 100 mg/mL) was 272 ± 183 ng/mL, the Tmax ([1]; Compound I 100 mg/mL) was 1.83 ± 1.89 h and the AUC(0-inf) ([1]; Compound I 100 mg/mL) was 4360 ± 1390 ng·h/mL. The AUC(0-t) ([1]; Compound I 100 mg/mL) was 4320 ± 1410 ng·h/mL, the Tmax ([2]; dog, plasma) was 8 h and the Cmax ([2]; dog, plasma, mean ± SD) was 322 ± 14.1 ng/mL. The AUC(0-inf) ([2]; dog, plasma, mean ± SD, read-out: AUCinf—obs of Compound I in plasma) was 5540 ± 1880 ng·h/mL, the AUC(0-t) ([2]; dog, plasma, mean ± SD, read-out: AUClast of Compound I in plasma) was 5510 ± 1880 ng·h/mL and the “AUC% exp. pol of Compound I” value ([2]; mean ± SD) was 0.578 ± 0.303%. It also gave a Cmax ([3]; IM single site) of 969 ± 349 ng/mL, a Tmax ([3]; IM single site) of 3.17 ± 2.56 h and an AUC(0-t) ([3]; IM single site) of 12400 ± 3430 ng·h/mL. For the same compound, the Cmax ([3]; IM two sites) was 1150 ± 500 ng/mL, the Tmax ([3]; IM two sites) was 1.83 ± 0.41 h and the AUC(0-t) ([3]; IM two sites) was 12800 ± 3120 ng·h/mL. The Description ([4]; composition with 113 mg/ml compound I (equivalent to 100 mg/ml Fulvestrant), Initial) was “Clear colorless to light”, the “Assay of compound I(%)” value [4, 6] was 104.0% and the “Visual Inspection” value [4, 6] was “Clear solution, No”. The “Assay of compound I(%)” value [4, 7] was 103.3%, the Description [4, 7] was “Clear colorless to light” and the “Visual Inspection” value [4, 7] was “Clear solution, No”. For the same compound, the Description ([4]; composition with 169.5 mg/ml compound I (equivalent to 150 mg/ml Fulvestrant), Initial) was “Clear colorless to light”, the “Assay of compound I(%)” value [4, 8] was 100.4% and the “Visual Inspection” value [4, 8] was “Clear solution, No”. The “Assay of compound I(%)” value [4, 9] was 95.30%, the Description [4, 9] was “Clear colorless to light” and the “Visual Inspection” value [4, 9] was “Clear solution, No”. For the same compound, the “Assay of compound I(%)” value [4, 10] was 101.8%, the “Visual Inspection” value [4, 10] was “Clear solution, No” and the “Assay of compound I(%)” value [4, 11] was 98%. For the same compound, the Description [4, 11] was “Clear colorless to light”, the “Visual Inspection” value [4, 11] was “Clear solution, No” and the AUC(0-t) (in vivo) was 17500 ng·h/mL. For the same compound, the “C_max (Compound I in plasma)” value [5] was 1081 ng/mL, the “T_max (Compound I in plasma)” value [5] was 3.42 h and the “T_½ (Compound I in plasma)” value [5] was 12.79 h. The “Tlast (Compound I in plasma)” value [5] was 152.00 h.
